“And” between values parts separate entries of the source, which are not always exact repeats. Equal values may be shown once.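 How tested: cells in 96-well plates exposed to compound for 48 hours at five concentrations. At the GI50, growth is halved. TGI marks complete inhibition of growth.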
System: MDA-MB-468 breast
Test: NCI-60 cell line screen, 48 h

COc1ccc(Cn2cc3c(c2-c2cc(OC)c(OC)c(OC)c2)CCCc2cnoc2-3)cc1N
GI50: 540 nM
TGI: > 100000 nM

O=C1OCC2=C1C(c1cccc(C(F)(F)F)c1)c1cc3c(cc1N2CCO)OCO3 (stereo unspecified)
GI50: 244 nM
TGI: 2160 nM

C[C@@H]1[C@H]2[C@H](C=C3[C@@H]4CC[C@H]5Cc6nc7c(nc6C[C@]5(C)[C@H]4C[C@@H](O)[C@@]32C)C[C@@H]2CC[C@H]3C4=C[C@@H]5O[C@@]6(CC[C@](C)(CO)O6)[C@@H](C)[C@@]5(O)[C@@]4(C)[C@H](O)C[C@@H]3[C@@]2(C)C7)O[C@]12CCC(C)(C)O2
GI50: 961 nM
TGI: 20700 nM

CCN1/C(=C/C=C/C=C/c2sc3ccccc3[n+]2CC)Sc2ccccc21
GI50: 117 nM
TGI: 989 nM

COc1ccc2c(O)c(/C=C3\N=Nc4ncccc43)oc2c1C[C@H]1CCNC[C@H]1F
GI50: 246 nM
TGI: 1950 nM

COc1cc2cn3c4ccc(O)cc4nc(N)c3c2cc1OC
GI50: 313 nM
TGI: 2210 nM

O=[N+]([O-])c1cccc(/C=C/c2ccccn2)c1
GI50: 2250 nM
TGI: > 100000 nM

COc1nc2c(cc1S(=O)(=O)c1ccccc1)CCc1c-2cnn1Cc1ccccc1
GI50: 6450 nM
TGI: > 100000 nM

Cc1cc(O)c(C2=NN(c3ccc(S(N)(=O)=O)cc3)C(c3ccccc3O)C2)cc1Cl (stereo unspecified)
GI50: 2260 nM
TGI: 5700 nM

Fc1c[c-]c(-c2ccccn2)c(F)c1.[CH3-].[Pt+2].c1ccc([PH+](c2ccccc2)c2ccccn2)cc1
GI50: 1400 nM
TGI: 4270 nM

CSC1=Nc2c(c(C)c(-c3ccccc3)n2CCCCl)C2=NC(=O)CN12
GI50: 3130 nM
TGI: 13100 nM

O=C(Nc1ccc(Cl)cc1F)c1cc(F)ccc1O
GI50: 1270 nM
TGI: 5180 nM

FC(F)(F)c1[nH]ncc1-c1nc2c(N3CCCCC3)cc3[nH]ncc3c2c2c1CCCC2
GI50: 691 nM
TGI: 2450 nM

COc1ccc2c(c1)C(=O)c1c-2c(OCCN(C)C)nc2cc(OC)ccc12
GI50: 1870 nM
TGI: 8570 nM

O=C(C[C@@]1(O)C(=O)Nc2c(Cl)ccc(Cl)c21)c1ccc(C2CC2)cc1
GI50: 221 nM
TGI: 18600 nM

O=C(CCc1ccco1)NC1CCN(CC2(c3ccc(Cl)cc3)CCC2)CC1
GI50: 5280 nM
TGI: 18900 nM

NC(=O)c1ccc2nc(-c3ccc(C4(N)CCC4)cc3)c(-c3ccccc3)n2n1
GI50: 169 nM
TGI: 10300 nM

CCOC(=O)/C(=C/c1ccccc1)C(=O)c1ccccc1
GI50: 3770 nM
TGI: 13800 nM

COc1cc(-c2nc(-c3nnc(-c4ccc(F)c(Cl)c4)o3)c3ccccn23)cc(OC)c1OC
GI50: 3390 nM
TGI: > 100000 nM

COc1cc(-c2nc3ccccc3[nH]2)ccc1OCC(=O)N=Nc1c(O)[nH]c2ccc(Cl)cc12
GI50: 1740 nM
TGI: 3450 nM

CCN1CCC2(CC1)NC(=O)c1c(c3ccc(Cl)c(Cl)c3n1C)C2C#N (stereo unspecified)
GI50: 1350 nM
TGI: 2910 nM

COc1cc(OC)cc(-c2ccc(-c3ccc(C(=N)N)s3)s2)c1
GI50: 304 nM
TGI: 1160 nM

COc1cc(/C=C2\CCCC3C2=Nc2ccccc2NC3c2cc(OC)c(OC)c(OC)c2)cc(OC)c1OC (stereo unspecified)
GI50: 1710 nM
TGI: 6100 nM

COc1ccc2[nH]c(-c3ccccc3)c(C=C(C#N)C#N)c2c1
GI50: 2130 nM
TGI: 49900 nM

C=CC[N+]1(CCO)CCN=C1CCCCCCCCCCCCC (stereo unspecified)
GI50: 1180 nM
TGI: 2550 nM

CN(C)CCN1C(=O)c2cccc3c(N)ccc(c23)C1=O
GI50: 8400 nM
TGI: > 25000 nM

Cc1cc(Nc2cc(CN3CCOCC3)c3nc(C)c(Cc4ccc(Cl)cc4F)n3n2)n[nH]1
GI50: 441 nM
TGI: 2950 nM

Cc1cc(C(=O)N[C@@H](CCC(=O)O)C(=O)O)sc1CC[C@@H]1CNc2nc(N)[nH]c(=O)c2C1
GI50: 33.3 nM

Cc1c2cnccc2c(C)c2c1c1cc(C(=O)O)ccc1n2C
GI50: 837 nM
TGI: 3070 nM

COc1ccc(-c2ccc3ncc4c(c3c2)n(-c2ccc(N3CCNCC3)c(C(F)(F)F)c2)c(=O)n4C)cn1
GI50: < 10 nM and 3.18 nM
TGI: 19.4 nM and 19.9 nM

COc1cccc2c1C(=O)c1c(O)c3c(c(O)c1C2=O)C[C@@](O)(C(=O)CO)C[C@@H]3OC1CC(OC(C)=O)C(OC(C)=O)C(C)O1 (stereo partly specified)
GI50: 530 nM
TGI: 5060 nM

COc1cc(-c2cc(-c3nc4cc(Cl)c(Cl)cc4[nH]3)[nH]n2)cc(OC)c1OC
GI50: 3490 nM
TGI: 16200 nM

O=C1c2ccc3c4c(ccc(c24)C(=O)N1CCCNCc1ccccc1)C(=O)N(CCCNCc1ccccc1)C3=O
GI50: 143 nM
TGI: 285 nM

CC(C)(C)CC(C)(C)N(CSc1ccc(Cl)cc1)CSc1ccc(Cl)cc1
GI50: 2610 nM
TGI: 12400 nM

COc1ccc(-c2nn(-c3ccc(NC(=O)Nc4ccc(Cl)c(Cl)c4)cc3)cc2-c2ccncc2)cc1Cl
GI50: 1610 nM
TGI: 4480 nM

O=C1CCC(N2C(=O)c3ccc(NS(=O)(=O)c4ccccc4OC(F)(F)F)cc3C2=O)C(=O)N1 (stereo unspecified)
GI50: 53.6 nM
TGI: 2130 nM

OC(COc1cccc2ccccc12)CN1CCN(c2ccc(Cl)cc2)CC1 (stereo unspecified)
GI50: 36400 nM
TGI: > 100000 nM

COc1ccc(C2=CC(c3ccc(Oc4ccnc5cc(Cl)ccc45)c(OC)c3)c3c(nc(OC)[nH]c3=O)N2)cc1 (stereo unspecified)
GI50: 5220 nM
TGI: > 100000 nM

N=C(N)c1ccc(-c2ccc(-c3cncc4ccccc34)s2)cc1F
GI50: 1280 nM
TGI: 2950 nM

CC(C)(C)OC(=O)N1CC(Cn2cc(C(F)(F)F)c3c(Cl)ncnc32)C1
GI50: 1840 nM
TGI: 3870 nM

CN1C(=O)N(C)C2C1NN=c1s/c(=C\c3c[nH]c4ccccc34)c(=O)n12 (stereo unspecified)
GI50: 35.9 nM
TGI: > 86800 nM

NC(N)=Nc1ccc(Oc2cccc(Nc3ccc(Cl)c(C(F)(F)F)c3)c2)cc1
GI50: 1480 nM
TGI: 3480 nM

C=CC(=O)NCCOc1cccc(Nc2cc(NCCCNC(=O)C3CCC3)c(Br)cn2)c1
GI50: 1420 nM
TGI: 5080 nM

C[C@H](C(=O)N[C@@H](Cc1ccc(-c2ccccc2)cc1)C(=O)NC1CC(C)(C)N(C)C(C)(C)C1)c1ccc(-c2ccccc2)c(F)c1
GI50: 1240 nM
TGI: 2660 nM

COc1ccccc1-c1ccc2nc(NC(=O)Nc3cc(C(F)(F)F)cc(C(F)(F)F)c3)sc2c1
GI50: 1520 nM
TGI: 5430 nM

CCN(CC)S(=O)(=O)c1ccc(-c2nc(C(Cl)Cl)nc3cc(C)nn23)cc1
GI50: 1720 nM
TGI: 4440 nM

— PubChem BioAssay (NCI)
